According to US7619059B2, “Bimolecular optical probes” (Life Technologies Corporation, priority 2003, dated 2009):

What was measured:
[1] = target: T1, GSK3β (Homo sapiens, UniProt P49841); assay: Z′-Lyte TR-FRET kinase assay, GSK3β; assay type: biochemical; details: 400 nM substrate, 0.25 μg/ml GSK3β; read-out: ATP EC50 (ATP titration) GSK3β
T1 construct: purchased PV3270/29135A

[2] = target: T2, GSK3α (Homo sapiens, UniProt P49840); assay: Z′-Lyte TR-FRET kinase assay, GSK3α; assay type: biochemical; details: 400 nM substrate, 0.03 μg/ml GSK3α; read-out: ATP EC50 (ATP titration) GSK3α
T2 construct: purchased PV3322/30387A
T2 sequence (P49840 whole entry): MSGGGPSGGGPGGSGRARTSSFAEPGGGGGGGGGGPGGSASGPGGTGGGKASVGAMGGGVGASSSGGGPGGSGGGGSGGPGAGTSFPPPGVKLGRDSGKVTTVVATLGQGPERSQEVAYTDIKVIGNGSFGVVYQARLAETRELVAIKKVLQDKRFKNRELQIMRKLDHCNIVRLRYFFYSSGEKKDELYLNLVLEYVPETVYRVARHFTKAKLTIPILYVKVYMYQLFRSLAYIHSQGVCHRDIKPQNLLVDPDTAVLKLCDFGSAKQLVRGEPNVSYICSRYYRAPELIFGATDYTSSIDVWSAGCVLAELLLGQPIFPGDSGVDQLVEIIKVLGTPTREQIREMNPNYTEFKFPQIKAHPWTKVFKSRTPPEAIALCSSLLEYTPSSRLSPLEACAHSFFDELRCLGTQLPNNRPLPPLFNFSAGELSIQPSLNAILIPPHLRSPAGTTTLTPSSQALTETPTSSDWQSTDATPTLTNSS

T1 sequence (P49841 whole entry): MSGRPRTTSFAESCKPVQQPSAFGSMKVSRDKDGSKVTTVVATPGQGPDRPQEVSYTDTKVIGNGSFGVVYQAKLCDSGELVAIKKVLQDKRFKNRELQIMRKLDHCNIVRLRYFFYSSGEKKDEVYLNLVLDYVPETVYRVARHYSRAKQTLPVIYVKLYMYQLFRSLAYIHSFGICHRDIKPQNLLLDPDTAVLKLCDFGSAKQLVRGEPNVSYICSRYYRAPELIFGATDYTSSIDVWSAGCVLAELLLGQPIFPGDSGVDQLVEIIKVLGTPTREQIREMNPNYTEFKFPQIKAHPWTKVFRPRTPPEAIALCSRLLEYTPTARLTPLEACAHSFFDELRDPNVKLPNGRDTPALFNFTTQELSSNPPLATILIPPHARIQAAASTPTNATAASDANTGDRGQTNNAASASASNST

EC50 [1]: ~10 µM
EC50 [2]: ~10 µM
SMILES: Nc1ncnc2c1ncn2[C@@H]1O[C@H](COP(=O)(O)OP(=O)(O)OP(=O)(O)O)[C@@H](O)[C@H]1O [ATP]
